Source: patent US20120115877A1, “Facially Amphiphilic Compounds, Compositions, And Uses Thereof In Treating Cancer” (POLYMEDIX, INC., priority 2010, published 2012)

What was measured:
Format in all cases: cell-based, human
MCF7 = assay: NCI-60 screen, Breast Cancer; details: 10 μM
Protocol: (§1) Several compounds were tested at single concentrations (10 μM) against 59 different human tumor cell lines, representing leukemia, melanoma and cancers of the lung, colon, brain, ovary, breast, prostate, and kidney (see, Table 3). The human tumor cell lines of the cancer screening panel were grown in RPMI 1640 medium containing 5% fetal bovine serum and 2 mM L-glutamine. For a typical screening experiment, cells were inoculated into 96 well microtiter plates in 100 μL at plating densities ranging from 5,000 to 40,000 cells/well depending on the doubling time of individual cell lines. After cell inoculation, the microtiter plates were incubated at 37° C., 5% CO2, 95% air and 100% relative humidity for 24 hours prior to addition of the compounds.
(§2) After 24 hours, two plates of each cell line were fixed in situ with TCA, to represent a measurement of the cell population for each cell line at the time of drug addition (Tz). Compounds were solubilized in dimethyl sulfoxide at 400-fold the desired final maximum test concentration and stored frozen prior to use. At the time of drug addition, an aliquot of frozen concentrate was thawed and diluted to twice the desired final maximum test concentration with complete medium containing 50 μg/ml gentamicin. Additional four, 10-fold or ½ log serial dilutions were made to provide a total of five compound concentrations plus control. Aliquots of 100 μl of these different drug dilutions were added to the appropriate microtiter wells already containing 100 μl of medium, resulting in the required final compound concentrations.
(§3) Following drug addition, the plates were incubated for an additional 48 hours at 37° C., 5% CO2, 95% air, and 100% relative humidity. For adherent cells, the assay was terminated by the addition of cold TCA. Cells were fixed in situ by the gentle addition of 50 μl of cold 50% (w/v) TCA (final concentration, 10% TCA) and incubated for 60 minutes at 4° C. The supernatant was discarded, and the plates were washed five times with tap water and air dried. Sulforhodamine B (SRB) solution (100 μl) at 0.4% (w/v) in 1% acetic acid was added to each well, and plates were incubated for 10 minutes at room temperature. After staining, unbound dye was removed by washing five times with 1% acetic acid and the plates were air dried. Bound stain was subsequently solubilized with 10 mM trizma base, and the absorbance was read on an automated plate reader at a wavelength of 515 nm. For suspension cells, the methodology was the same except that the assay was terminated by fixing settled cells at the bottom of the wells by gently adding 50 μl of 80% TCA (final concentration, 16% TCA). Using the seven absorbance measurements (time zero, (Tz), control growth, (C), and test growth in the presence of drug at the five concentration levels (Ti)), the percentage growth was calculated at each of the compound concentrations levels. Percentage growth inhibition was calculated as:
(§4) [(Ti−Tz)/(C−Tz)]×100 for concentrations for which Ti>/=Tz
(§5) [(Ti−Tz)/Tz]×100 for concentrations for which Ti<Tz.
(§6) Three dose response parameters were calculated for each compound. Growth inhibition of 50% (GI50) was calculated from [(Ti−Tz)/(C−Tz)]×100=50, which is the compound concentration resulting in a 50% reduction in the net protein increase (as measured by SRB staining) in control cells during the compound incubation. The compound concentration resulting in total growth inhibition (TGI) was calculated from Ti=Tz. The LC50 (concentration of compound resulting in a 50% reduction in the measured protein at the end of the compound treatment as compared to that at the beginning) indicating a net loss of cells following treatment was calculated from [(Ti−Tz)/Tz]×100=−50. Values were calculated for each of these three parameters if the level of activity was reached; however, if the effect was not reached or was exceeded, the value for that parameter was expressed as greater or less than the maximum or minimum concentration tested.

MDA-MB-31/ATCC = assay: NCI-60 screen, Breast Cancer; details: 10 μM, MDA-MB-231/ATCC
Protocol: as §1, §2, §3, §4, §5, §6

CAKI-1 = assay: NCI-60 screen, Renal Cancer; details: 10 μM
Protocol: as §1, §2, §3, §4, §5, §6

A498 = assay: NCI-60 screen, Renal Cancer; details: 10 μM
Protocol: as §1, §2, §3, §4, §5, §6

ACHN = assay: NCI-60 screen, Renal Cancer; details: 10 μM
Protocol: as §1, §2, §3, §4, §5, §6

TK-10 = assay: NCI-60 screen, Renal Cancer; details: 10 μM
Protocol: as §1, §2, §3, §4, §5, §6

RXF 393 = assay: NCI-60 screen, Renal Cancer; details: 10 μM
Protocol: as §1, §2, §3, §4, §5, §6

SN12C = assay: NCI-60 screen, Renal Cancer; details: 10 μM
Protocol: as §1, §2, §3, §4, §5, §6

UO-31 = assay: NCI-60 screen, Renal Cancer; details: 10 μM
Protocol: as §1, §2, §3, §4, §5, §6

UACC-62 = assay: NCI-60 screen, Melanoma; details: 10 μM
Protocol: as §1, §2, §3, §4, §5, §6

SK-MEL-28 = assay: NCI-60 screen, Melanoma; details: 10 μM
Protocol: as §1, §2, §3, §4, §5, §6

LOX IMVI = assay: NCI-60 screen, Melanoma; details: 10 μM
Protocol: as §1, §2, §3, §4, §5, §6

MDA-MB-435 = assay: NCI-60 screen, Melanoma; details: 10 μM
Protocol: as §1, §2, §3, §4, §5, §6

UACC-257 = assay: NCI-60 screen, Melanoma; details: 10 μM
Protocol: as §1, §2, §3, §4, §5, §6

MALME-3M = assay: NCI-60 screen, Melanoma; details: 10 μM
Protocol: as §1, §2, §3, §4, §5, §6

SK-MEL-2 = assay: NCI-60 screen, Melanoma; details: 10 μM
Protocol: as §1, §2, §3, §4, §5, §6

SK-MEL-5 = assay: NCI-60 screen, Melanoma; details: 10 μM
Protocol: as §1, §2, §3, §4, §5, §6

COLO 205 = assay: NCI-60 screen, Colon Cancer; details: 10 μM
Summary of the method: (§7)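 Compounds were tested at a single 10 μM concentration on cells grown in RPMI 1640 with 5% FBS and 2 mM L-glutamine, plated 24 h before dosing. After 48 h at 37 °C, cells were TCA-fixed and SRB-stained, and absorbance was read at 515 nm. Percent growth is relative to time-zero and untreated control plates.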

HCT-15 = assay: NCI-60 screen, Colon Cancer; details: 10 μM
Summary of the method: as §7

HCC-2998 = assay: NCI-60 screen, Colon Cancer; details: 10 μM
Summary of the method: as §7

SF-539 = assay: NCI-60 screen, CNS Cancer; details: 10 μM
Protocol: as §1, §2, §3, §4, §5, §6

U251 = assay: NCI-60 screen, CNS Cancer; details: 10 μM
Protocol: as §1, §2, §3, §4, §5, §6

SF-295 = assay: NCI-60 screen, CNS Cancer; details: 10 μM
Protocol: as §1, §2, §3, §4, §5, §6

SNB-19 = assay: NCI-60 screen, CNS Cancer; details: 10 μM
Protocol: as §1, §2, §3, §4, §5, §6

SNB-75 = assay: NCI-60 screen, CNS Cancer; details: 10 μM
Protocol: as §1, §2, §3, §4, §5, §6

SF-268 = assay: NCI-60 screen, CNS Cancer; details: 10 μM
Protocol: as §1, §2, §3, §4, §5, §6

## NCCSc1cc(SCCN)c(C(F)(F)F)cc1NC(=O)c1cc(C(=O)Nc2cc(C(F)(F)F)c(SCCN)cc2SCCN)ncn1 [Compound F]
MCF7
  Percent Growth: −59.97%
MDA-MB-31/ATCC
  Percent Growth: 18.87%
CAKI-1
  Percent Growth: 31.42%
A498
  Percent Growth: 69.6%
ACHN
  Percent Growth: 20.02%
TK-10
  Percent Growth: 21.48%
RXF 393
  Percent Growth: 47.68%
SN12C
  Percent Growth: 57.46%
UO-31
  Percent Growth: 48.74%
UACC-62
  Percent Growth: 51.23%
SK-MEL-28
  Percent Growth: 83.94%
LOX IMVI
  Percent Growth: 6.66%
MDA-MB-435
  Percent Growth: 70.62%
UACC-257
  Percent Growth: 76.46%
MALME-3M
  Percent Growth: 80.15%
SK-MEL-2
  Percent Growth: 46.77%
SK-MEL-5
  Percent Growth: 62.3%
COLO 205
  Percent Growth: 126%
HCT-15
  Percent Growth: 62.31%
HCC-2998
  Percent Growth: 31.93%
SF-539
  Percent Growth: 65.73%
U251
  Percent Growth: 23.67%
SF-295
  Percent Growth: 57.66%
SNB-19
  Percent Growth: 49.54%
SNB-75
  Percent Growth: −20.24%
SF-268
  Percent Growth: 32.42%
